Data as given in patent US5849753A, “Pyridyl imidazole derivatives and processes for the preparation thereof” (Korea Research Institute of Chemical Technology, priority 1994, dated 1998).

What was measured:
angiotensin II receptor = test: Angiotensin II Receptor Binding Assay ([3H] angiotensin II binding inhibition); conditions: [3H] angiotensin II ligand; 60 minutes, 25° C.; test concentration not given
Protocol: In accordance with the procedure disclosed in Chiu, A. T. et al., Eur. J. Pharm., 157, 13(1981), a ligand marked with a radioisotope was reacted with an angiotensin II receptor and the reactant was filtered with a glass fiber to remove unreacted ligand. After washing the filter, the amount of the remaining isotope was measured to determine the binding activity of the ligand, as described below in detail.
Sprague-Dawley rats and Wistar rats of 250 to 350 g(from The Korea Research Institute of Chemical Technology) were tested and the test procedures were carried out at 4° C., unless otherwise specified. Adrenal gland was separated from the Sprague-Dawley rats(liver, in the case of Wistar rats) into cortex and medulla. The separated adrenal cortex and medulla were washed with a sucrose buffer solution (0.2M sucrose, 1 mM EDTA, 10 mM Tris, pH 7.2) and homogenized in the same buffer solution by using a Teflon pestle and a Brinkmann homogenizer. The homogenates were centrifuged at 3,000 Xg for 10 minutes to remove precipitates and further centrifuged at 12,000 Xg for 13 minutes. The final supernatants were centrifuged at 102,000 Xg for 1 hour to obtain precipitates, which were washed with a Tris buffer solution(50 mM Tris, 5 mM MgCl2, pH 7.2) and re-centrifuged at 102,000 Xg for 1 hour. The resulting precipitates were immediately processed at the following step or stored at -70° C.
The precipitates were suspended in a Tris buffer solution. The amount of protein was determined by using a Bio-Rad DC protein analyzing kit and the protein concentration was adjusted to the amounts of: 0.2 to 0.3 mg/ml(Sprague-Dawley rat: adrenal cortex), 1.5 to 2.0 mg/ml(Sprague-Dawleyrat: adrenal medulla), and 1.5 to 2.0 mg/ml(Wistar rat: liver). To the suspension, bovine serum albumin(BSA) was added to a concentration of 0.25 wt % and the resultant was immediately processed at the following step or stored at -70° C.
(ii) Measurement of angiotensin II receptor binding capacity 50 μl(based on ligand) of [^3 H] angiotensin II(NEN, NET-446) and 10 μl of each of the test compounds with various concentrations were added to the buffer solution(50 mM Irris(pH 7.2), 5 mM MgCl2, 0.25% BSA) to adjust the final volume to be 0.5 ml. 100 μl of the receptor suspension was added thereto and the resulting solution was reacted for 60 minutes while stirring in a water bath at 25° C. 3 ml of cold buffer solution for analysis was added to cease the reaction. The isotope which was bound to the receptor was isolated from the resultant by using Brandel Cell Harvester System with Whatman glass fiber GF/C. After washing the filter, the radioactivity of the filter was determined by using a liquid scintillation counter. Binding inhibition(%) of the test compound was calculated as follows:
Binding Inhibition(%)=[{(T--B)-(S--B)}/(T--B)]×100
wherein T is cpm of the reaction product untreated with the test compound, S is cpm of the reaction product treated with the test compound, and B is cpm of blank test.

renal hypertensive rat [1] = test: Blood pressure lowering effect in renal hypertension (renal hypertensive rats, intravenous or oral); assay type: in vivo, male Sprague-Dawley rats; conditions: 1 mg, read-out: Maxium Blood Pressure Lowering Effect(%)
Excerpt: (§1) To induce renal hypertension, left renal artery of 4 week-old male Sprague-Dawley rats(from The Korea Research Institute of Chemical Technology) was ligated. The rats were anesthetized with ether and the surgical region on the left abdomen of the rat was shaved, disinfected, and then incised about 1 cm vertically. The renal artery near abdominal aorta was isolated carefully from surrounding tissues and veins, and then ligated completely with a suture(4/0 sterile surgical silk). The muscular strata and skin of the surgical area were sutured with a suture(4/0 sterile surgical silk). The surgical region was disinfected to prevent infection and thereafter, 200 to 250 mg/Kg/day of cephazolin sodium was injected intramuscularly for 2 days. 6 to 8 days after the ligation, rats showing systolic pressure of more than 180 mmHg were selected for renal hypertension test. The blood pressure was determined by a tail-cuff method from the tail under unanesthetized condition(Gerold, M. et al., Arzneimittrel-Forsch, 18, 1285(1968)).
(§2) Each of the compounds to be tested was administered intravenously or orally into the renal hypertensive rat. The blood pressure of the rats was determined by direct method(Chiu, A. T. et al., J. Pharmacol. Exp. Ther. 250, 867(1989)) using a catheter. The rats were anesthetized with ketamine hydrochloride(125 mg/kg, i.p.) and a catheter was filled with saline and inserted into a carotid artery and carotid vein. The surgical area was sutured with a metal clip. The rats were relaxed at least 3 hours and the catheter in the carotid artery was adapted to an isotec pressure transducer to determine their blood pressure and heart rate with a physiograph(Linearcorder WR3310). After the blood pressure was stabilized, the test compound was administered intravenously or orally. For intravenous administration, the administered volume and washing volume were 1.0 ml/Kg and 0.2 ml, respectively. The blood pressure and heart rate were measured in regular intervals up to 24 hours after the administration of the test compound and compared with those measured after the administration of the control compound Losartan.
(§3) The test compound was dissolved in 0.05N KOH for intravenous administration and suspended in Tween 80 for oral administration.

renal hypertensive rat [2] = test: Blood pressure lowering effect on oral administration to rats at several doses; assay type: in vivo, male Sprague-Dawley rats
Excerpt: as §1, §2, §3
(iii) Blood pressure lowering effect The present compounds, Losartan(Dup 753) and the Merck compound were administrated orally to rats in 10, 3, 1, 0.3 and 0.1 mg/kg under the same condition as in (ii) and the blood pressure lowering effect was determined.

unanesthetized dogs = test: Blood pressure lowering effect in unanesthetized dogs (furosemide treated); assay type: in vivo, dog; set-up: Maximum blood pressure lowering effect in a dog: unit not given here; conditions: oral; for Blood pressure variation with time: dogs, 1.0 mg
Protocol: A number of dogs were fed freely in a feeding room and those weighing 7 to 12 kg in good health were selected regardless of their gender.
The test dogs were anesthetized with 30 mg/kg of pentobarbital sodium by intravenous injection and the left femoral artery and femoral vein were separated carefully. Silicone catheter, specially prepared and filled with saline treated with heparin(1,000 IU/ml), was cannulated into the blood vessels. After the surgery, the dogs were constrained to measure their blood pressure continuously with Gould 2000 physiograph adapted to a Grass P23 XL pressure transducer; and their heart rates were monitored with ECG/Biotacho amplifier. The dogs were tested at least 2 days after the surgery.
10 mg/kg of furosemide was injected intramuscularly 18 hours(in case of intravenous injection, 2 hours) before the beginning of the test (administration of the test compound) to improve the activity of renin in blood plasma. After the injection of furosemide, neither food nor water was provided. The test compound was suspended in Tween 80 and administered in an amount of 20 mg/kg orally. The blood pressure and heart rate were measured up to 8 hours after the administration of each test compound.
The maximum blood pressure lowering effect of the present compounds and the control compounds were determined in different amounts of administration using the same method as […]

renal hypertensive rats = test: Duration of action in renal hypertensive rats; assay type: in vivo, male Sprague-Dawley rats; conditions: oral; for blood pressure lowering effect with time: 1 mg/kg
Excerpt: as §1, §2
The present(Example 28) and control(Merck) compounds were tested using the hypertensive rats of test 2(i). 1 mg or 3 mg/kg of each compound was administered orally and blood pressure lowering effect with time was determined to measure the duration of action of the compounds.

With `CCCCc1nc2c(C)c(-c3ccccc3)c(C(OC)OC)nc2n1Cc1ccc(-c2ccccc2-c2nnn[nH]2)cc1` [Example 28, 2-butyl-5-dimethoxymethyl-6-phenyl-7-methyl-3-[2'-(1H-tetrazol-5-yl)-biphenyl-4-ylmethyl]-3H-imidazo[4,5-b]pyridine] the “Binding Inhibition(%)” value (angiotensin II receptor) was 50.5%, the change in vivo at 1 mg (renal hypertensive rat [1]) was -47% and the “blood pressure lowering effect” value (renal hypertensive rat [2]; 0.3 mg/kg) was 13%. For the same molecule, the “blood pressure lowering effect” value (renal hypertensive rat [2]; 1 mg/kg) was 47%, the “blood pressure lowering effect compared with the Merck compound” value (renal hypertensive rat [2]; Table 2) was “far superior effect” and the “Maximum blood pressure lowering effect in a dog” value (unanesthetized dogs; 0.1 mg/kg) was 9. The “Maximum blood pressure lowering effect in a dog” value (unanesthetized dogs; 0.3 mg/kg) was 18, the “Maximum blood pressure lowering effect in a dog” value (unanesthetized dogs; 1 mg/kg) was 33 and the “Blood pressure variation with time” value (unanesthetized dogs; 0.5 hr) was -3.3%. For the same molecule, the “Blood pressure variation with time” value (unanesthetized dogs; 1 hr) was -18.9%, the “Blood pressure variation with time” value (unanesthetized dogs; 2 hr) was -27.7% and the “Blood pressure variation with time” value (unanesthetized dogs; 4 hr) was -33.3%. For the same molecule, the “Blood pressure variation with time” value (unanesthetized dogs; 6 hr) was -29.5%, the “Blood pressure variation with time” value (unanesthetized dogs; 8 hr) was -27.1% and the “duration of action compared with the Merck compound” value (renal hypertensive rats; 1 mg/kg versus Merck compound 3 mg/kg) was “far longer duration of action”. The “blood pressure lowering effect with time” value (renal hypertensive rats; 0 min) was 0%, the “blood pressure lowering effect with time” value (renal hypertensive rats; 10 min) was -16% and the “blood pressure lowering effect with time” value (renal hypertensive rats; 20 min) was -17%. The “blood pressure lowering effect with time” value (renal hypertensive rats; 30 min) was -18%, the “blood pressure lowering effect with time” value (renal hypertensive rats; 60 min) was -21% and the “blood pressure lowering effect with time” value (renal hypertensive rats; 90 min) was -34%. The “blood pressure lowering effect with time” value (renal hypertensive rats; 120 min) was -33%, the “blood pressure lowering effect with time” value (renal hypertensive rats; 240 min) was -46% and the “blood pressure lowering effect with time” value (renal hypertensive rats; 360 min) was -47%. For the same molecule, the “blood pressure lowering effect with time” value (renal hypertensive rats; 1320 min) was -25% and the “blood pressure lowering effect with time” value (renal hypertensive rats; 1440 min) was -28%.
